Assay results from EP2769723A1, “Compounds for use in inhibiting HIV capsid assembly” (priority 2013, dated 2014).
Where a name gives a salt, the structure may show the parent alone. Read-outs that look alike come from different tables or passages of the source.

Columns and labels:
wild type NL4.3 HIV-1 = assay: Tissue culture infectivity test, TZM titration of supernatants from infected TZM cells; format: cell-based; conditions: Human immunodeficiency virus 1, TZM
Experimental: Hits selected in the YFP-screen were further evaluated in the tissue culture experiments with cells infected with the wild type NL4.3 HIV-1. The virus for infection was obtained from co-culture of MT4 cells. The MT4 cells co-culture was synchronized for one week and then used for the infection of fresh MT 4 cells. 48 hrs post-infection was the culture supernatant harvested, cleared by the filtration through […] filter and stored in -80 °C in 1 ml aliquots. Amount of virus was quantified by enzyme-linked immuno sorbent assay (ELISA) with antibodies against HIV-1 CA (3 ng of CA/ml) and blue cell assay (1x10^5 IU/ml), which gives 3 x 10^4 IU/ng of CA.
For compounds testing the TZM cells were seeded on 96-well plate in the density 5 x 10^3 cells per well. The culture media was aspirated approx. 16 hrs later and cells were infected by the wild type NLA.3 HIV-1 by addition of 50J..il of prepared virus stock diluted with 50 µl of complete DMEM. The compounds were added twice to ensure that there are not any preassembled viruses present at the time of their addition. Compounds were first added 8 hrs post-infection and then 24 hrs later. In both cases the old culture media were replaced by 100 µl of fresh complete DMEM prior to the compounds addition. Different compounds concentrations were tested, but the DMSO concentration never exceeded 1 % DMSO. As controls were used cells treated only with 1 % DMSO and cells treated with 0,1 µM Lopinavir (HIV-1 protease inhibitor). Supernatant was harvested 24 hrs after the second compound addition, i.e. 56 hrs post-infection. Harvested supernatants were immediately titrated on the fresh TZM cells in aim to perform the infectivity assay (TZM titration), or inactivated by addition of Triton X-100 to the final concentration 0.025 % for further ELISA analysis.
TZM titration was performed on the cells seeded day before on 96-well plate in the density 5 x 10^3 cells per well. The analysis was performed for each compound concentration at three different dilutions and in duplicates. The culture media was aspired and cells were lysed 48 hrs post-infection by addition of 100 µl of SteadyGlo luciferase substrate (Promega) diluted 1 : 1 by complete DMEM. The luminescence signal was measured on Luminoskan Ascent (Thermo Labsystems) after the transfer of 80 µl of lysate to the flat bottom white polystyrene assay plates (Costar).

TZM cells = assay: in vitro; format: cell-based; conditions: Table 4; non-cytotoxic when values higher than 80 % of 1 % DMSO treated cells
Experimental: Cytotoxicity of selected hits tested in the assay with NL4.3 infected cells was determined by MTT test. TZM cells were seeded on the previous day on 96-well plate in the density 5 x 10^3 cells per well. The tested compounds were added in different concentrations, but the DMSO concentration never exceeded 1 % DMSO. As controls were used cells treated only with 1 % DMSO (non-toxic concentration) and cells treated with 5 % DMSO (toxic concentration). 20 µl of the CellTiter 96 Aqueous One substrate (Promega) was added to the 100 µl of culture media 48 hrs after the compounds addition and the color development was quantified 4 hrs later by measuring the absorbance at 490 nm on Saphire reader. Compounds were consider non-cytotoxic (at given concentrations) when the measured values were higher than 80 % of the value of 1 % DMSO treated cells.

CA = target: T1, CA (Human immunodeficiency virus type 1 group M subtype B, UniProt P12493); assay: ALPHA screen (AlphaScreen): inhibition of CAI binding to CA; design: species or system HIV-1; conditions: CAI-biotin peptide / CA-GST; compounds screened at 0.5-100 µM; read-out: α screen IC50
T1 construct: a fusion protein of CA with glutathione-S-transferase (CA-GST)
Experimental: The AlphaScreen experiments are performed using Perkin Elmer Enspire plate reader in white 96-well ProxiPlates and PBS supplemented with 0.05% Tween20, 2mM DTT, 2% DMSO. First, Streptavidin-coated Donor beads are used to capture the CAI-biotin peptide. In the other solution, a fusion protein of CA with glutathione-S-transferase (CA-GST) is mixed with GSH Acceptor beads. Both mixtures were incubated and then mixed together. To test the ability of prepared organic compounds to inhibit the CAI binding to CA, they are screened at concentrations between 0.5-100 µM and IC50 values are calculated from the influenced signals.
Upon illumination by laser at 680 nm, Donor beads containing the photosensitizer phthalocyanine convert ambient oxygen to an excited form of singlet oxygen ^1O2. Singlet oxygen can within its half-life of ~ 4 µs diffuse approximately 200 nm in solution. If an Acceptor bead is within that proximity, which is mostly upon CA:CAI interaction, energy is transferred from the singlet oxygen to thioxene derivates within the Acceptor and signal at 520 - 620 nm is emitted.

[1] = read-out: tissue culture IC50 (µM)

Row | IC50 (wild type NL4.3 HIV-1; Table 4, cells infected with wild type NL4.3 HIV-1, read-out: tissue culture IC50) [µM] | Compound | IC50 (wild type NL4.3 HIV-1; [1]) [µM] | toxicity LC50 (µM) (TZM cells) | IC50 (CA) [µM]
1 | – | O=C(O)c1ccc(Nc2nc(-c3ccncc3)nc3ccccc23)cc1 [AMR-542] | > 10 | non-toxic | –
2 | – | Oc1cc(Cl)cc(Nc2nc(-c3cccnc3)nc3ccccc23)c1 [KP-251] | ~5 | non-toxic | –
3 | – | CCOC(=O)c1ccccc1Nc1nc(-c2ccncc2)nc2ccccc12 [AMR-540] | > 10 | non-toxic | –
4 | – | COCCN(CCOC)c1nc(-c2cccnc2)nc2ccccc12 [OSR-283 HCl] | > 10 | non-toxic | –
5 | – | CCOC(=O)c1cccc(Nc2nc(-c3ccncc3)nc3ccccc23)c1 [AMR-541] | < 5 | non-toxic | –
6 | – | FC(F)(F)c1cccc(Nc2nc(-c3cccnc3)nc3ccccc23)c1 [OSR-198] | > 25 | non-toxic | –
7 | – | COc1cc2nc(Nc3cc(F)c(F)c(F)c3)nc(Nc3cc(F)c(F)c(F)c3)c2cc1OC [KP-272] | < 5 | non-toxic | –
8 | – | CNc1ccc(F)cc1Nc1nc(-c2cccnc2)nc2ccccc12 [AMR-560] | ~12 | non-toxic | –
9 | – | CC(C)(C)Oc1nc(-c2cccnc2)nc2ccccc12 [OSR-285] | > 10 | non-toxic | –
10 | – | CC(C)Nc1nc(-c2cccnc2)nc2ccccc12 [OSR-295] | > 10 | non-toxic | –
11 | – | COc1ccc(Nc2nc(-c3cccnc3)nc3ccccc23)cn1 [KP-283] | > 10 | non-toxic | –
12 | – | O=[N+]([O-])c1ccc(Sc2nc(-c3cccnc3)nc3ccccc23)c(F)c1 [KP-76] | ~5 | non-toxic | –
13 | – | Fc1cc(F)c(Nc2nc(-c3cccnc3)nc3ccccc23)cc1F [OSR-299] | ~10 | non-toxic | –
14 | – | Fc1cc(Nc2nc(N3CCOCC3)nc3ccccc23)cc(F)c1F [KP-268] | > 10 | non-toxic | –
15 | – | Fc1cc(Nc2cc(-c3cccnc3)nc3ccccc23)cc(F)c1F [OSR-205] | ~10 | non-toxic | –
16 | – | Fc1cc(Nc2nc(Cl)nc3ccccc23)cc(F)c1F [KP-187] | > 10 | non-toxic | –
17 | – | O=[N+]([O-])c1cnccc1Nc1nc(-c2cccnc2)nc2ccccc12 [KP-92] | ~8 | non-toxic | –
18 | – | Fc1cccc(Nc2nc(-c3cccnc3)nc3ccccc23)c1 [KP-165] | > 10 | non-toxic | –
19 | – | O[C@H]1CC[C@H](Nc2nc(-c3cccnc3)nc3ccccc23)CC1 [OSR-183] | > 25 | non-toxic | –
20 | – | Cc1ccc(Nc2nc(-c3cccnc3)nc3ccccc23)cc1C(F)(F)F [KP-278] | ~10 | non-toxic | –
21 | – | O=[N+]([O-])c1ccc(Nc2ccnc(-c3cccnc3)n2)c(F)c1 [KP-34] | > 25 | non-toxic | –
22 | – | CCOC(=O)c1sc2nc(-c3cccnc3)nc(Nc3cc(F)c(F)c(F)c3)c2c1C [KP-199] | > 10 | non-toxic | –
23 | – | O=[N+]([O-])c1ccc(Nc2cc(-c3cccnc3)nc3ccccc23)c(F)c1 [KP-94] | ~5 | – | –
24 | – | CC(=O)OC[C@H]1O[C@@H](Sc2nc(-c3cccnc3)nc3ccccc23)[C@H](OC(C)=O)[C@@H](OC(C)=O)[C@@H]1OC(C)=O [KP-119] | > 25 | non-toxic | –
25 | – | CS(=O)(=O)c1ccc(Nc2nc(-c3ccncc3)nc3ccccc23)cc1 [AMR-551] | > 10 | non-toxic | –
26 | 0.5 to 1 | CN(C)c1nc(-c2cccnc2)nc2ccc(O)cc12 [OSR-242X] | – | non-toxic | –

Row | IC50 (wild type NL4.3 HIV-1; Table 4, cells infected with wild type NL4.3 HIV-1, read-out: tissue culture IC50) [µM] | Compound | IC50 (wild type NL4.3 HIV-1; [1]) [µM] | toxicity LC50 (µM) (TZM cells) | IC50 (CA) [µM]
27 | – | c1cncc(-c2nc(N3CCOCC3)c3ccccc3n2)c1 [KP-190] | > 10 | non-toxic | –
28 | – | Oc1ccc2nc(-c3cccnc3)nc(O)c2c1 [OSR-243] | – | non-toxic | –
29 | – | O=[N+]([O-])c1cc(Nc2nc(-c3cccnc3)nc3ccccc23)ccc1F [AMR.425] | – | non toxic | 7
30 | – | Fc1cc(Nc2nc(-c3ccccc3)nc3ccccc23)cc(F)c1F [KP-153] | 10 to 15 | non-toxic | –
31 | – | COc1ccc(Nc2nc(Cl)nc3ccccc23)cn1 [KP-288] | > 10 | non-toxic | –
32 | – | Fc1ccc(Nc2nc(-c3cccnc3)nc3ccccc23)cc1Cl [KP-207] | > 10 | non-toxic | –
33 | – | C[S+]([O-])c1ccc(Nc2nc(-c3ccncc3)nc3ccccc23)cc1 (stereo not shown) [AMR-573] | > 10 | non-toxic | –
34 | – | CSc1ccc(Nc2nc(-c3ccncc3)nc3ccccc23)cc1 [AMR-570] | ~10 | non-toxic | –
35 | – | Fc1c(F)c(F)c(Nc2nc(-c3cccnc3)nc3ccccc23)c(F)c1F [KP-107] | ~7 | non-toxic | –
36 | – | c1cncc(-c2nc(Nc3ccncn3)c3ccccc3n2)c1 [KP-111] | ~18 | non-toxic | –
37 | – | COCCOc1cc2nc(-c3cccnc3)nc(Nc3ccc(C(=O)O)cc3O)c2cc1OCCOC [OSR-79 free base] | > 25 | non toxic | –
38 | – | Fc1cc(Nc2nc(-c3cccnc3)nc3ccccc23)c(F)c(F)c1F [KP-98] | ~15 | non-toxic | –
39 | – | Fc1cc(Nc2nc(Nc3cc(F)c(F)c(F)c3)c3ccccc3n2)cc(F)c1F [KP-265] | ~10 | non-toxic | –
40 | – | O=S(=O)(c1ccc(Nc2nc(-c3cccnc3)nc3ccccc23)cc1)c1nccs1 [KP-270] | > 10 | non-toxic | –
41 | – | CC(=O)c1ccc(Nc2nc(-c3ccncc3)nc3ccccc23)cc1 [AMR-535] | < 5 | non-toxic | –
42 | – | Cc1c(CO)sc2nc(-c3cccnc3)nc(Nc3cc(F)c(F)c(F)c3)c12 [KP-233] | > 10 | non-toxic | –
43 | – | C=Cc1ccc2nc(-c3cccnc3)nc(Nc3cc(F)c(F)c(F)c3)c2c1 [KP-130] | > 25 | non-toxic | –
44 | – | Fc1ccc(Nc2nc(-c3cccnc3)nc3ccccc23)c(F)c1F [OSR-298] | > 10 | non-toxic | –
45 | – | Fc1cc(F)c(Nc2nc(-c3cccnc3)nc3ccccc23)cc1Br [KP-100] | – | non-toxic | –
46 | – | c1cncc(-c2nc(Oc3nc(-c4cccnc4)nc4ccccc34)c3ccccc3n2)c1 [OSA-296] | > 10 | non-toxic | –
47 | – | CCOC(=O)N1CCC(Nc2nc(-c3ccncc3)nc3ccccc23)CC1 [AMR-577] | > 10 | non-toxic | –
48 | – | NC(=O)c1ccc(Nc2nc(-c3ccncc3)nc3ccccc23)cc1 [AMR-556] | > 10 | non-toxic | –
49 | – | Fc1cc(Nc2nc(-c3cncc(Br)c3)nc3ccccc23)cc(F)c1F [KP-158 (old)] | 0.5 to 1 | non-toxic | –
50 | – | O=[N+]([O-])c1cc(Nc2ccnc(-c3cccnc3)n2)ccc1F [KP-43] | – | non-toxic | –
51 | – | Oc1ccc2nc(-c3cccnc3)nc(Nc3cc(F)c(F)c(F)c3)c2c1 [OSR-217] | – | non-toxic | –
